The test system of test [1] is ovalbumin-induced asthma model mice. The experiment in a line: Ovalbumin-induced asthma model mice: eosinophil count in BAL Fluid. Format: in vivo, Balb/c mice.
Test [2] deals with ovalbumin-induced pulmonary fibrosis model mice. The experiment in a line: Ovalbumin-induced pulmonary fibrosis model mice: hydroxyproline content in lung tissue. Format: in vivo, Balb/c mice. Particulars: valine 15 g/L, dexamethasone 10 mg %, inhalation 40 minutes per day, day 21 to day 42; no treatment 28.7%.
Experimental: Ovalbumin-induced pulmonary fibrosis model mice were induced by a conventional method using Balb/c mice, and the pulmonary fibrosis suppressive effect of coadministration of L-valine (free form) and dexamethasone by inhalation was investigated. 24 hours after antigen exposure on day 42, the lungs were extirpated from the pulmonary fibrosis model mice, and the hydroxyproline content in lung tissue was measured as an index of the degree of fibrosis. Valine (15 g/L) and dexamethasone (10 mg %) were aerosolized with a nebulizer and coadministered by inhalation (40 minutes per day) on consecutive days from day 21 to day 42. The results are expressed as increments (%) of the hydroxyproline content in each test group compared to the hydroxyproline content in the lung tissues from normal mice.
For test [3] the test system is unchanged. The experiment in a line: Ovalbumin-induced pulmonary fibrosis model mice: airway resistance (Penh) after methacholine. Format: in vivo, Balb/c mice. Particulars: valine 15 g/L, dexamethasone 10 mg %, inhalation 40 minutes per day, day 21 to day 42, no treatment 4.0.
Experimental: Ovalbumin-induced pulmonary fibrosis model mice were induced by a conventional method using Balb/c mice, and the lung function reduction suppressive effect of coadministration of L-valine (free form) and dexamethasone by inhalation was investigated. 24 hours after antigen exposure on day 42, the pulmonary fibrosis model mice were allowed to inhale methacholine, which is a bronchial constriction inducer, and airway resistance (Penh) was measured using a Buxco whole body plethysmography. Valine (15 g/L) and dexamethasone (10 mg %) were aerosolized with a nebulizer and coadministered by inhalation (40 minutes per day) on consecutive days from day 21 to day 42.
Test [4] deals with ovalbumin-induced asthma model mice. The experiment in a line: Lung tissue pathology (H/E staining), immune cell infiltration in ovalbumin-induced asthma model mice. Type of test: in vivo, Balb/c mice. The following applies: valine 3 mM or ornithine hydrochloride 15 mM, free water drinking day 0 to day 21. As for the experimental part:
After elapse of 24 hours following a third antigen exposure, the lungs were extirpated from the mice and fixed in 10% formalin buffer solution, paraffin sections were prepared, and H/E staining was performed. […] Note that FIG. 7(a) is a lung tissue image of a normal mouse without asthma induction.

For test [5] the test system is unchanged. Nature of the test: Airway hypersensitivity test (methacholine, whole body plethysmography) in ovalbumin-induced asthma model mice. Type of test: in vivo, Balb/c mice. Particulars: 3 mM aqueous solution, free water drinking day 0 to day 21; methacholine inhalation; asthma model mice 6.61. As for the experimental part:
After elapse of 24 hours following a third antigen exposure, the animals were allowed to inhale methacholine, which is an airway constricting substance, and an airway hypersensitivity test of the ovalbumin-induced asthma mice was performed using a whole body plethysmography. As an index of airway resistance, the Penh value was used. In the ovalbumin-induced asthma model mice, the Penh value was 6.61; in the group receiving a 3 mM aqueous solution of valine administered by the free water drinking method from day 0 to day 21, the Penh value decreased to 3.77.

For test [6] the test system is unchanged. Nature of the test: Cytokine concentrations in BAL Fluid (ELISA) of ovalbumin-induced asthma model mice. Type of test: in vivo, Balb/c mice. Particulars: 0.6 mM aqueous solution, free water drinking day 0 to day 21. As for the experimental part: After a 0.6 mM aqueous solution of valine was prepared, it was administered by the free water drinking method from day 0 to day 21. The IFN-γ/IL4 ratio increased from 5.8 for the control group to 8.0 for the valine administration group.

Test [7] deals with Ovalbumin-immunized Balb/c mice. The experiment in a line: Cytokine productivity of isolated immune cells (lung macrophages co-cultured with splenocytes) from ovalbumin-immunized mice given valine. The following applies: valine 3 mM free water drinking day 0 to day 11, co-cultured with splenocytes 48 hours, ELISA. Format: in vivo. How it is done:
Ovalbumin-immunized Balb/c mice were given L-valine (free form), and changes in the cytokine productivity of isolated immune cells were examined, whereby the effect on the Th1/Th2 balance in a living organism's immune system was investigated. After a 3 mM aqueous solution of valine was prepared, it was administered by the free water drinking method from day 0 to day 11. […] On day 11, macrophages were isolated from the lungs and cultured in the presence of 1 mg/mL ovalbumin overnight, after which they were further co-cultured with splenocytes isolated from an ovalbumin-immunized mouse for 48 hours. After the cultivation, cytokines in the culture supernatant were measured by an ELISA method. […] With valine administration, an increase in the Th1 cytokine content and a reduction in the Th2 cytokine content were observed.
A general note: ELISA stands for enzyme-linked immunosorbent assay.

Setting [8] is: 0.6 to 15 mM aqueous solutions, free water drinking day 0 to day 21, 1st of 3 values (respectively), control 33.
[9] abbreviates: 0.6 to 15 mM aqueous solutions, free water drinking day 0 to day 21, 2nd of 3 values (respectively), control 33.
[10] abbreviates: 0.6 to 15 mM aqueous solutions, free water drinking day 0 to day 21, 3rd of 3 values (respectively), control 33.

Molecules are shown by their SMILES.

As to `N=C(N)NCCC[C@H](N)C(=O)O` [arginine, L-arginine], the “eosinophil count in the BAL Fluid” value in test [1] (3 to 45 mM aqueous solutions, free water drinking day 0 to day 21, 1st of 3 values (respectively), control 45) came to 26000 µL⁻¹; in test [1] (3 to 45 mM aqueous solutions, free water drinking day 0 to day 21, 2nd of 3 values (respectively), control 45), 25000 µL⁻¹; in test [1] (3 to 45 mM aqueous solutions, free water drinking day 0 to day 21, 3rd of 3 values (respectively), control 45), 19000 µL⁻¹.
On to `C[C@@H]1C[C@H]2[C@@H]3CCC4=CC(=O)C=C[C@]4(C)[C@@]3(F)[C@@H](O)C[C@]2(C)[C@@]1(O)C(=O)CO` [dexamethasone, reference compound], for which the “increment of hydroxyproline content in lung tissue compared to normal mice” value in test [2] stood at 15.4%. Besides, the “Penh value (airway resistance)” value in test [3] is 4.1.
On to `NCC(=O)O` [glycine], for which the “eosinophil count in the BAL Fluid” value was determined as 32000 µL⁻¹ in test [1] (setting [8]), 27000 µL⁻¹ in test [1] (setting [9]) and 28000 µL⁻¹ in test [1] (setting [10]).
In the case of `CC[C@H](C)[C@H](N)C(=O)O` [isoleucine, L-isoleucine], in test [1] (0.45 mM aqueous solution, free water drinking day 0 to day 21, control 20), the “eosinophil count in the BAL Fluid” value was 12000 µL⁻¹.
As for `CC(C)C[C@H](N)C(=O)O` [leucine, L-leucine], the “eosinophil count in the BAL Fluid” value in test [1] (0.9 mM aqueous solution, free water drinking day 0 to day 21, control 20) amounted to 7000 µL⁻¹.
With `N[C@@H](CO)C(=O)O` [serine], the figures for the “eosinophil count in the BAL Fluid” value in test [1] (setting [8]), in test [1] (setting [9]) and in test [1] (setting [10]) were 29000 µL⁻¹, 24000 µL⁻¹ and 22000 µL⁻¹, respectively.
Turning to `CC(C)[C@H](N)C(=O)O` [valine, L-valine], the “lung tissue symptoms (immune cell infiltration, hypertrophy of bronchial epithelial cells, mucosa-producing cells, bronchial stenosis)” value in test [4] is “all of the above-described symptoms were potently suppressed, and no bronchial stenosis was observed”. Besides, the “Penh value (index of airway resistance)” value in test [5] is 3.77. Moreover, the “increment of hydroxyproline content in lung tissue compared to normal mice” value in test [2] is on record as 31%. Moreover, in test [1] (15 mM, free water drinking started at first suction exposure (day 12)), the “effect on eosinophil count in the BAL Fluid compared to the control group” value was “no significant effect”. The “eosinophil count in the BAL Fluid” value was 26000 µL⁻¹ in test [1] (0.12 to 15 mM aqueous solutions, free water drinking day 0 to day 21, 1st of 4 values (respectively), control 36); 23000 µL⁻¹ in test [1] (0.12 to 15 mM aqueous solutions, free water drinking day 0 to day 21, 2nd of 4 values (respectively), control 36); 17000 µL⁻¹ in test [1] (0.12 to 15 mM aqueous solutions, free water drinking day 0 to day 21, 3rd of 4 values (respectively), control 36); 28000 µL⁻¹ in test [1] (0.12 to 15 mM aqueous solutions, free water drinking day 0 to day 21, 4th of 4 values (respectively), control 36); “decreased with dependence on the dose” in test [1] (0.6, 3, or 15 g/L aqueous solution, oral by sonde 100 μL/time/animal twice a day, day 0 to day 21); “decreased with dependence on the dose” in test [1] (0.6 or 15 g/L aqueous solution, inhalation (nebulizer) once daily 30 minutes, 5 days/week, day 11 to day 21). For the same compound, the “IL-4 in BAL Fluid” value in test [6] (ELISA, control 69.1) is recorded as 120.7 pg/mL. In test [6] (ELISA, control 403.8), the “IFN-γ in BAL Fluid” value stood at 970.4 pg/mL. In test [6] (control 5.8), the “IFN-γ/IL-4 ratio in BAL Fluid” value was 8.0. In test [3], the “Penh value (airway resistance)” value was 4.0. The “IL-4 (pg/mL) Mean, culture supernatant” value in test [7] amounted to 9.2 pg/mL. For the same compound, the “IFN-γ (pg/mL) Mean, culture supernatant” value in test [7] (control 147.0) is 341.1 pg/mL.
